Measured values as given in ChEMBL document CHEMBL4732123, “Discovery of 7-aminophenanthridin-6-one as a new scaffold for matrix metalloproteinase inhibitors with multitarget neuroprotective activity” (Eur J Med Chem, 2021).
Calls of active or inactive are those of the source. The rule behind the calls is not given here.

Tests used:
[1] = target: T1, 72 kDa type IV collagenase (Homo sapiens, UniProt P08253); test: Inhibition of recombinant human MMP2 (110 to 452 residues) using Mca-Pro-Leu-Gly-Leu-Dpa-Ala-Arg-NH2 expressed in yeast expression system as substrate incubated for 15 mins followed by substrate addition and measured after 2 to 4 hrs by fluorescence based assay
Target sequence in this assay (P08253 whole entry, the tested form may be a part): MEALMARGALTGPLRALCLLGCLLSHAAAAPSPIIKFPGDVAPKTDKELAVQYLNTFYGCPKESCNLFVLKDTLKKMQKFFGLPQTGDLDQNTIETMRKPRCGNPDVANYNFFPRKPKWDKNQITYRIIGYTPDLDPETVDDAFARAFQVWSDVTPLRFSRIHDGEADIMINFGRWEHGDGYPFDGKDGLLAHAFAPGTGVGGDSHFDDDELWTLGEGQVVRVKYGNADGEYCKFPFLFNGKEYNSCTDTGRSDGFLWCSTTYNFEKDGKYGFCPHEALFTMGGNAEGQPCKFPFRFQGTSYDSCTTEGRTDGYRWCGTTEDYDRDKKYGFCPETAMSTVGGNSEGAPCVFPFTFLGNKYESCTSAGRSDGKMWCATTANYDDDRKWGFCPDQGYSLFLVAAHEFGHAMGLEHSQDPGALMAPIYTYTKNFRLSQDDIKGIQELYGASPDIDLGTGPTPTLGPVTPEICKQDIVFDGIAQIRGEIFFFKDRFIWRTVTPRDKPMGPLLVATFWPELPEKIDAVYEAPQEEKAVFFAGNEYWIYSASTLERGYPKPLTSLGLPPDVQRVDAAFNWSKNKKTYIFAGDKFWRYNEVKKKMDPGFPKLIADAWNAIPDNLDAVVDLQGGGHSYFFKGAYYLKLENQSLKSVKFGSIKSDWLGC

Neutrophil collagenase [2] = target: T2, Neutrophil collagenase (Homo sapiens, UniProt P22894); test: Inhibition of recombinant human MMP8 (99 to 269 residues) using Mca-Pro-Leu-Gly-Leu-Dpa-Ala-Arg-NH2 expressed in Escherichia coli expression system as substrate incubated for 15 mins followed by substrate addition and measured after 2 to 4 hrs by fluorescence based assay
Target sequence in this assay (P22894 whole entry, the tested form may be a part): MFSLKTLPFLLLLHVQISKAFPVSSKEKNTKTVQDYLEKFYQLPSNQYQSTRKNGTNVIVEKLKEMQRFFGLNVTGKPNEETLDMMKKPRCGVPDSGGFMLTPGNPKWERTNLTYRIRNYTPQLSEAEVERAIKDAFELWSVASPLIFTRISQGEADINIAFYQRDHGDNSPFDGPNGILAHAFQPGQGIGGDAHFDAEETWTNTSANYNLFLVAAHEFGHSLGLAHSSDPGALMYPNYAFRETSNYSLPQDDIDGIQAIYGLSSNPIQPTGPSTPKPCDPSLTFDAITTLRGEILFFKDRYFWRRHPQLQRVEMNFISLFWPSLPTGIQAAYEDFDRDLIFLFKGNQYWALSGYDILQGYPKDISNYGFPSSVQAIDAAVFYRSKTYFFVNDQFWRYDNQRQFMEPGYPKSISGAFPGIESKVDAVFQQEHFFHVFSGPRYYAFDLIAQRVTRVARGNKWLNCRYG

[3] = target: T3, Matrix metalloproteinase-9 (Homo sapiens, UniProt P14780); test: Inhibition of recombinant human MMP9 (107 to 449 residues) using Mca-Pro-Leu-Gly-Leu-Dpa-Ala-Arg-NH2 expressed in Escherichia coli expression system as substrate incubated for 15 mins followed by substrate addition and measured after 2 to 4 hrs by fluorescence based assay
Collagenase 3 [4] = target: T4, Collagenase 3 (Homo sapiens, UniProt P45452); test: Inhibition of recombinant human MMP13 (104 to 274 residues) using Mca-Pro-Leu-Gly-Leu-Dpa-Ala-Arg-NH2 expressed in Escherichia coli expression system as substrate incubated for 15 mins followed by substrate addition and measured after 2 to 4 hrs by fluorescence based assay
[5] = Cytotoxicity against mouse SN-56 cells assessed as reduction in cell viability upto 100 uM incubated for 24 hrs by MTT assay; assay type: cell-based; conditions: sn-56, 24 h
SN-56 [6] = test: Neuroprotective activity against H2O2-induced lipid peroxidation in mouse SN-56 cells assessed as increase in MDA level incubated for 24 hrs by lipid peroxidation MDA assay kit method; assay type: functional, cell-based
[7] = Neuroprotective activity against H2O2-induced lipid peroxidation in mouse SN-56 cells assessed as increase in MDA level at 1 to 150 uM incubated for 24 hrs by lipid peroxidation MDA assay kit method relative to control; assay type: functional; conditions: dose 1-150 µM
SN-56 [8] = test: Neuroprotective activity against H2O2-induced cytotoxicity in mouse SN-56 cells assessed as increase in cell viability at 10 to 100 uM incubated for 24 hrs by MTT assay; assay type: functional, cell-based; conditions: dose 10-100 µM
[9] = target: T1, 72 kDa type IV collagenase; test: Non-competitive inhibition of recombinant human MMP2 (110 to 452 residues) using Mca-Pro-Leu-Gly-Leu-Dpa-Ala-Arg-NH2 expressed in yeast expression system as substrate incubated for 15 mins followed by substrate addition and measured after 2 to 4 hrs by fluorescence based assay; conditions: time 2-4.25 hrs
Target sequence in this assay (P08253 110-660 limits assumed): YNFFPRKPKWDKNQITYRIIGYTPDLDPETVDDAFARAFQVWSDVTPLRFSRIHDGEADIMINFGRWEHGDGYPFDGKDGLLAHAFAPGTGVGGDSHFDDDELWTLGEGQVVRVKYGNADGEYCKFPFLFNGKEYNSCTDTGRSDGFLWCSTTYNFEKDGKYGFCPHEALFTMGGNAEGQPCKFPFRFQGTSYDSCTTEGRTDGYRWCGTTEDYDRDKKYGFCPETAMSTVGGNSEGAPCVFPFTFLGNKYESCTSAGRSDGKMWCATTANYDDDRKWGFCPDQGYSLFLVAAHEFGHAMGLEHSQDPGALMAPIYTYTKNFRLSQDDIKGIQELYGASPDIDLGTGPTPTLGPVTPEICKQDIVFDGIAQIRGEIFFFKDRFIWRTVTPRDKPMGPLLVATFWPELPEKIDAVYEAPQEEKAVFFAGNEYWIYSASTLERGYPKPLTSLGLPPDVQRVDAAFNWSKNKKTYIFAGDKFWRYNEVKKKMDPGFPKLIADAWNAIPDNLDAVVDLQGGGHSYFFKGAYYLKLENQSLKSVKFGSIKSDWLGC

Neutrophil collagenase [10] = target: T2, Neutrophil collagenase; test: Non-competitive inhibition of recombinant human MMP8 (99 to 269 residues) using Mca-Pro-Leu-Gly-Leu-Dpa-Ala-Arg-NH2 expressed in Escherichia coli expression system as substrate incubated for 15 mins followed by substrate addition and measured after 2 to 4 hrs by fluorescence based assay; conditions: time 2-4.25 hrs
Target sequence in this assay (P22894 101-467 limits assumed): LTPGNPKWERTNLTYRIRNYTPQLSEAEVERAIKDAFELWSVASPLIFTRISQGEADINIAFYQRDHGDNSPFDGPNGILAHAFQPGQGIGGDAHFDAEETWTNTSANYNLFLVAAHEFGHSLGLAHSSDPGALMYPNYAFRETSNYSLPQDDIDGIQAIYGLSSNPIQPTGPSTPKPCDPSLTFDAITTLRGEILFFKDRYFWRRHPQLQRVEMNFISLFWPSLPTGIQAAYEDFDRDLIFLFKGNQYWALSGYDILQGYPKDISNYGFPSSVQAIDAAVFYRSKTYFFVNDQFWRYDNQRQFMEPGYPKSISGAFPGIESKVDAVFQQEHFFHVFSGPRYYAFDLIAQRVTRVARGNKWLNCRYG

[11] = target: T3, Matrix metalloproteinase-9; test: Non-competitive inhibition of recombinant human MMP9 (107 to 449 residues) using Mca-Pro-Leu-Gly-Leu-Dpa-Ala-Arg-NH2 expressed in Escherichia coli expression system as substrate incubated for 15 mins followed by substrate addition and measured after 2 to 4 hrs by fluorescence based assay; conditions: time 2-4.25 hrs
Collagenase 3 [12] = target: T4, Collagenase 3; test: (§1) Non-competitive inhibition of recombinant human MMP13 (104 to 274 residues) using Mca-Pro-Leu-Gly-Leu-Dpa-Ala-Arg-NH2 expressed in Escherichia coli expression system as substrate incubated for 15 mins followed by substrate addition and measured after 2 to 4 hrs by fluorescence based assay; conditions: time 2-4.25 hrs
[13] = target: T1, 72 kDa type IV collagenase; test: Non-competitive inhibition of recombinant human MMP2 (110 to 452 residues) using Mca-Pro-Leu-Gly-Leu-Dpa-Ala-Arg-NH2 expressed in yeast expression system as substrate by fluorescence based Michaelis-Menten analysis; conditions: time 2-4 hrs
Target sequence in this assay (P08253 110-660 limits assumed): as the sequence (P08253 110-660 limits assumed) above

Neutrophil collagenase [14] = target: T2, Neutrophil collagenase; test: Non-competitive inhibition of recombinant human MMP8 (99 to 269 residues) using Mca-Pro-Leu-Gly-Leu-Dpa-Ala-Arg-NH2 expressed in Escherichia coli expression system as substrate by substrate by fluorescence based Michaelis-Menten analysis; conditions: time 2-4 hrs
Target sequence in this assay (P22894 101-467 limits assumed): as the sequence (P22894 101-467 limits assumed) above

[15] = target: T3, Matrix metalloproteinase-9; test: Non-competitive inhibition of recombinant human MMP9 (107 to 449 residues) using Mca-Pro-Leu-Gly-Leu-Dpa-Ala-Arg-NH2 expressed in Escherichia coli expression system as substrate by substrate by fluorescence based Michaelis-Menten analysis; conditions: time 2-4 hrs
Collagenase 3 [16] = target: T4, Collagenase 3; test: Non-competitive inhibition of recombinant human MMP13 (104 to 274 residues) using Mca-Pro-Leu-Gly-Leu-Dpa-Ala-Arg-NH2 expressed in Escherichia coli expression system as substrate by fluorescence based Michaelis-Menten analysis assay; conditions: time 2-4 hrs
[17] = target: T1, 72 kDa type IV collagenase; test: Non-competitive inhibition of recombinant human MMP2 (110 to 452 residues) using Mca-Pro-Leu-Gly-Leu-Dpa-Ala-Arg-NH2 expressed in yeast expression system as substrate by fluorescence based Lineweaver-Burk plot; conditions: time 2-4 hrs
Target sequence in this assay (P08253 110-660 limits assumed): as the sequence (P08253 110-660 limits assumed) above

Neutrophil collagenase [18] = target: T2, Neutrophil collagenase; test: Non-competitive inhibition of recombinant human MMP8 (99 to 269 residues) using Mca-Pro-Leu-Gly-Leu-Dpa-Ala-Arg-NH2 expressed in Escherichia coli expression system as substrate by substrate by fluorescence based Lineweaver-Burk plot; conditions: time 2-4 hrs
Target sequence in this assay (P22894 101-467 limits assumed): as the sequence (P22894 101-467 limits assumed) above

[19] = target: T3, Matrix metalloproteinase-9; test: Non-competitive inhibition of recombinant human MMP9 (107 to 449 residues) using Mca-Pro-Leu-Gly-Leu-Dpa-Ala-Arg-NH2 expressed in Escherichia coli expression system as substrate by substrate by fluorescence based Lineweaver-Burk plot; conditions: time 2-4 hrs
Collagenase 3 [20] = target: T4, Collagenase 3; test: Non-competitive inhibition of recombinant human MMP13 (104 to 274 residues) using Mca-Pro-Leu-Gly-Leu-Dpa-Ala-Arg-NH2 expressed in Escherichia coli expression system as substrate by fluorescence based Lineweaver-Burk plot assay; conditions: time 2-4 hrs
[21] = target: T1, 72 kDa type IV collagenase; test: Non-competitive inhibition of recombinant human MMP2 (110 to 452 residues) using Mca-Pro-Leu-Gly-Leu-Dpa-Ala-Arg-NH2 expressed in yeast expression system as substrate by fluorescence based Dixon plot; conditions: time 2-4 hrs
Target sequence in this assay (P08253 110-660 limits assumed): as the sequence (P08253 110-660 limits assumed) above

Neutrophil collagenase [22] = target: T2, Neutrophil collagenase; test: Non-competitive inhibition of recombinant human MMP8 (99 to 269 residues) using Mca-Pro-Leu-Gly-Leu-Dpa-Ala-Arg-NH2 expressed in Escherichia coli expression system as substrate by substrate by fluorescence based Dixon plot; conditions: time 2-4 hrs
Target sequence in this assay (P22894 101-467 limits assumed): as the sequence (P22894 101-467 limits assumed) above

[23] = target: T3, Matrix metalloproteinase-9; test: Non-competitive inhibition of recombinant human MMP9 (107 to 449 residues) using Mca-Pro-Leu-Gly-Leu-Dpa-Ala-Arg-NH2 expressed in Escherichia coli expression system as substrate by substrate by fluorescence based Dixon plot; conditions: time 2-4 hrs
Collagenase 3 [24] = target: T4, Collagenase 3; test: Non-competitive inhibition of recombinant human MMP13 (104 to 274 residues) using Mca-Pro-Leu-Gly-Leu-Dpa-Ala-Arg-NH2 expressed in Escherichia coli expression system as substrate by fluorescence based Dixon plot assay; conditions: time 2-4 hrs
SN-56 [25] = test: Neuroprotective activity against H2O2-induced lipid peroxidation in mouse SN-56 cells assessed as increase in MDA level at 100 uM incubated for 24 hrs by lipid peroxidation MDA assay kit method; assay type: functional, cell-based
Collagenase 3 [26] = target: T4, Collagenase 3; test: as §1, with “as substrate at 100 uM incubated for” for “as substrate incubated for”, “based assay relative to control” for “based assay”; conditions: time 2-4.25 hrs

T3 sequence (P14780 whole entry, the tested form may be a part): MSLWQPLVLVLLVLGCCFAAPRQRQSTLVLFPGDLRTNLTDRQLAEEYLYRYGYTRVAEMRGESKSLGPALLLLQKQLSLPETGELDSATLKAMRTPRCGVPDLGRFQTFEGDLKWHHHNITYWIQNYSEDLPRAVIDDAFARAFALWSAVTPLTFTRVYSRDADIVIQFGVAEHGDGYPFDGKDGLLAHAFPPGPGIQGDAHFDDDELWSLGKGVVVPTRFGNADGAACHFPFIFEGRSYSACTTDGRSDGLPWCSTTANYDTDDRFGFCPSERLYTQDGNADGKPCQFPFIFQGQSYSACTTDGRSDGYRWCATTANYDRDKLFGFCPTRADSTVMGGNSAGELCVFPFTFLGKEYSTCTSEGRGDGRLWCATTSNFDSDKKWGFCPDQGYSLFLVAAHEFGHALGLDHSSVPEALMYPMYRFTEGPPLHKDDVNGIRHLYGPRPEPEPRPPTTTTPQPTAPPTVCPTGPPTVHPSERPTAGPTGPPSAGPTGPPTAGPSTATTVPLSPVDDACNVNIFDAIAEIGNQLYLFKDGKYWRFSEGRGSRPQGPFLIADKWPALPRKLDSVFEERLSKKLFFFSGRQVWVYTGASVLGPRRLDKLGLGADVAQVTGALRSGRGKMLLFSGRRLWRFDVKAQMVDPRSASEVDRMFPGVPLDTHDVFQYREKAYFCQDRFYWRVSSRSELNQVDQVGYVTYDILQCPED

SMILES	IC50 [1]	IC50 (Neutrophil collagenase [2])	IC50 [3]	IC50 (Collagenase 3 [4])	Activity [5]	Activity (SN-56 [6])	Activity [7]	other results
Nc1ccc(-c2cc(Nc3ccccc3)c3c(=O)[nH]c4ccccc4c3c2)cc1	32 µM	47 µM	28 µM	73 µM	Non-Toxic	Dose-dependent effect	100%	Activity (SN-56 [8]): Active
O=c1[nH]c2ccccc2c2cc(-c3ccccc3)cc(Nc3ccc(F)cc3)c12	98 µM	> 100 µM	99 µM	99 µM	Non-Toxic	Dose-dependent effect		
Nc1cc(-c2ccccc2)cc2c1c(=O)[nH]c1ccccc12	> 100 µM	> 100 µM	> 100 µM	> 100 µM	Non-Toxic			
Cc1c(C)c2c(c(C)c1O)CCC(C)(C(=O)O)O2 (configuration not stated)								Activity (SN-56 [25]): Active
Cc1ccc(-c2cc(Nc3ccccc3)c3c(=O)[nH]c4ccccc4c3c2)cc1	84.5 µM	62 µM	37.5 µM	41 µM	Non-Toxic			
CCCCNc1cc(-c2ccccc2)cc2c1c(=O)[nH]c1ccccc12	56 µM	86 µM	99.5 µM	60 µM	Non-Toxic	Dose-dependent effect	100%	
COc1ccc(Nc2cc(-c3ccccc3)cc3c2c(=O)[nH]c2c(OC)c(OC)ccc23)cc1	42 µM	68 µM	20.5 µM	37 µM	Non-Toxic			
CCCCNc1cc(-c2cccs2)cc2c1c(=O)[nH]c1ccccc12	38 µM	> 100 µM	> 100 µM		Non-Toxic	Dose-dependent effect		inhibition (Collagenase 3 [26]): 54%
COc1ccc(-c2cc(Nc3ccccc3)c3c(=O)[nH]c4ccccc4c3c2)cc1	47 µM	54 µM	32 µM	40 µM	Non-Toxic	Dose-dependent effect		
Cn1c(=O)c2c(Nc3ccccc3)cc(-c3ccccc3)cc2c2ccccc21	> 100 µM	> 100 µM	> 100 µM	> 100 µM	Non-Toxic			
Nc1cc(-c2cccs2)cc2c1c(=O)[nH]c1ccccc12	> 100 µM	> 100 µM	> 100 µM	> 100 µM	Non-Toxic	Dose-dependent effect	100%	Activity (SN-56 [8]): Active
CN(C)c1ccc(Nc2cc(-c3ccccc3)cc3c2c(=O)[nH]c2ccccc23)cc1	73 µM	84 µM	88 µM	40 µM	Non-Toxic			
COc1ccc(Nc2cc(-c3ccccc3)cc3c2c(=O)[nH]c2ccccc23)cc1	60 µM	> 100 µM	22 µM	16.4 µM	Non-Toxic	Dose-dependent effect	100%	Activity (SN-56 [8]): Active
O=c1[nH]c2ccccc2c2cc(-c3ccco3)cc(Nc3ccc(F)cc3)c12	45.4 µM	> 100 µM	> 100 µM	> 100 µM	Non-Toxic			

Further lines, with some results ahead:

IC50 [1]	IC50 (Neutrophil collagenase [2])	IC50 [3]	IC50 (Collagenase 3 [4])	SMILES	Activity [5]	Activity (SN-56 [6])	Activity [7]	other results
13 µM	69 µM	54 µM	42 µM	O=c1[nH]c2ccccc2c2cc(-c3ccccc3)cc(Nc3ccccc3)c12	Non-Toxic			
6.1 µM	18 µM	16.1 µM	15.6 µM	O=c1[nH]c2ccccc2c2cc(-c3cccs3)cc(Nc3ccccc3)c12	Non-Toxic	Dose-dependent effect	100%	Activity (SN-56 [8]): Active
6.05 µM	7 µM	5 µM	5.4 µM	COc1ccc(Nc2cc(-c3cccs3)cc3c2c(=O)[nH]c2ccccc23)cc1	Non-Toxic	Dose-dependent effect	100%	inhibition [9]: Active; inhibition (Neutrophil collagenase [10]): Active; inhibition [11]: Active; inhibition (Collagenase 3 [12]): Active; Activity (SN-56 [8]): Active; Activity [13]: Active; Activity (Neutrophil collagenase [14]): Active; Activity [15]: Active; Activity (Collagenase 3 [16]): Active; Activity [17]: Active; Activity (Neutrophil collagenase [18]): Active; Activity [19]: Active; Activity (Collagenase 3 [20]): Active; Activity [21]: Active; Activity (Neutrophil collagenase [22]): Active; Activity [23]: Active; Activity (Collagenase 3 [24]): Active
25.4 µM	> 100 µM	> 100 µM	41.7 µM	O=c1[nH]c2ccccc2c2cc(-c3ccco3)cc(Nc3ccccc3)c12	Non-Toxic	Dose-dependent effect		
6.8 µM	26.5 µM	20.1 µM	15.8 µM	O=c1[nH]c2ccccc2c2cc(-c3cccs3)cc(Nc3ccc(F)cc3)c12	Non-Toxic	Dose-dependent effect	100%	Activity (SN-56 [8]): Active
21.6 µM	60 µM	86 µM	46 µM	Cc1cc(C)cc(Nc2cc(-c3ccco3)cc3c2c(=O)[nH]c2ccccc23)c1	Non-Toxic			
9 µM	23 µM	9 µM	15 µM	COc1ccc(Nc2cc(-c3ccco3)cc3c2c(=O)[nH]c2ccccc23)cc1	Non-Toxic	Dose-dependent effect		
